ChEMBL document CHEMBL1144007, “Activity of Mannich bases of 7-hydroxycoumarin against Flaviviridae” (Bioorg Med Chem, 2008)
Active and inactive are the calls of the source. No rule for the calls is given here.

Experiments:
[1] = test system: Bovine viral diarrhea virus 1; assay: Antiviral activity against BVDV NADL in MDBK cells assessed as protection from virus-induced cytopathogenicity by MTT method; type: functional, organism-based; details: Bovine viral diarrhea virus isolates and strains
[2] = test system: Poliovirus 1; assay: Antiviral activity against Human poliovirus 1 Sabin; type: functional
[3] = test system: Vesicular stomatitis virus; assay: Antiviral activity against vesicular stomatitis virus; type: functional, organism-based
[4] = test system: Human immunodeficiency virus 1; assay: Antiviral activity against HIV1; type: functional, organism-based
[5] = test system: Respiratory syncytial virus; assay: Antiviral activity against RSV A2 in VERO76 cells assessed as reduction of plaque number by MTT method; type: functional, organism-based; details: human respiratory syncytial virus, A2, Vero 76
[6] = test system: Yellow fever virus; assay: Antiviral activity against YFV in BHK cells assessed as protection from virus-induced cytopathogenicity by MTT method; type: functional, organism-based
[7] = test system: Vaccinia virus; assay: Antiviral activity against vaccinia virus; type: functional, organism-based; details: Orthopoxvirus vaccinia
[8] = Cytotoxicity against human MT4 cells after 96 hrs by MTT method; type: cell-based
[9] = test system: Reovirus sp.; assay: Antiviral activity against Reovirus; type: functional, organism-based

| SMILES | EC50 [1] [µM] | Activity [2] | Activity [3] | Activity [4] | EC50 [5] [µM] | EC50 [6] [µM] | Activity [7] | CC50 at 96 h [8] [µM] | Activity [9] |
| --- | --- | --- | --- | --- | --- | --- | --- | --- | --- |
| CCN(CC)c1oc2ccc3ccccc3c2c(=O)c1Cc1c(OC(C)=O)ccc2ccc(=O)oc12 | > 100 | inactive | inactive | inactive | > 100 | > 100 | inactive | > 100 | inactive |
| Cc1cc(=O)oc2c(CN3CCOCC3)c(OC(=O)c3ccccc3)ccc12 | > 100 | inactive | inactive | inactive | > 100 | > 100 | inactive | > 100 | inactive |
| CC(=O)c1ccc(N2CCN(Cc3c(O)ccc4ccc(=O)oc34)CC2)cc1 | > 100 | inactive | inactive | inactive | > 100 | > 100 | inactive | 18 | inactive |
| COc1ccc2c(=O)c(Cc3c(O)ccc4ccc(=O)oc34)c(N3CCCC3)oc2c1 | > 100 | inactive | inactive | inactive | > 100 | > 100 | inactive | > 100 | inactive |
| C[C@@]1(O)[C@H](O)[C@@H](CO)O[C@H]1n1cnc2c(=O)[nH]c(N)nc21 [2'-B-METHYL-GUANOSINE] | 4 | inactive | inactive | inactive | > 100 | 1 | inactive | > 100 | inactive |
| CCCOc1ccc2c(C)cc(=O)oc2c1CN1CCCCC1 | 38 | inactive | inactive | inactive | > 100 | > 100 | inactive | > 100 | inactive |
| CC(=O)Oc1ccc2ccc(=O)oc2c1Cc1c(N2CCCCC2)oc2ccc3ccccc3c2c1=O | 59 | inactive | inactive | inactive | 40 | 77 | inactive | > 100 | inactive |
| CCN(CC)c1oc2cc(OC(C)=O)ccc2c(=O)c1Cc1c(OC(C)=O)ccc2c(C)cc(=O)oc12 | > 100 | inactive | inactive | inactive | 11 | > 100 | inactive | 44 | inactive |
| Cc1cc(=O)oc2c(CN3CCN(C/C=C/c4ccccc4)CC3)c(O)ccc12 | > 18 | inactive | inactive | inactive | > 100 | > 53 | inactive | 28 | inactive |
| CCN(CC)c1oc2cc(OC)ccc2c(=O)c1Cc1c(OC(C)=O)ccc2ccc(=O)oc12 | > 100 | inactive | inactive | inactive | 20 | > 100 | inactive | 83 | inactive |
| CC(=O)Oc1ccc2c(C)cc(=O)oc2c1Cc1c(C)[nH]c2ccccc12 | > 100 | inactive | inactive | inactive | 25 | > 100 | inactive | 41 | inactive |
| Cc1cc(=O)oc2c(CN3CCOCC3)c(O)ccc12 | > 100 | inactive | inactive | inactive | > 100 | > 100 | inactive | > 100 | inactive |
| CC(=O)Oc1ccc2ccc(=O)oc2c1Cc1c(N(C)C)oc2ccc3ccccc3c2c1=O | > 48 | inactive | inactive | inactive | > 30 | > 52 | inactive | 80 | inactive |
| CN(CC(=O)O)Cc1c(O)ccc2ccc(=O)oc12 | > 100 | inactive | inactive | inactive | > 100 | > 100 | inactive | > 100 | inactive |
| Cc1cc(=O)oc2c(CN3CCN(C)CC3)c(O)ccc12 | > 100 | inactive | inactive | inactive | > 100 | > 100 | inactive | > 100 | inactive |
| COCCN(CCOC)c1oc2ccc3ccccc3c2c(=O)c1Cc1c(OC(C)=O)ccc2c(C)cc(=O)oc12 | > 100 | inactive | inactive | inactive | ≥ 100 | > 100 | inactive | > 100 | inactive |
| COCCN(CCOC)c1oc2ccc3ccccc3c2c(=O)c1Cc1c(OC(C)=O)ccc2ccc(=O)oc12 | 78 | inactive | inactive | inactive | 5 | 100 | inactive | > 100 | inactive |
| CCC(=O)Oc1ccc2c(C)cc(=O)oc2c1Cc1c(-c2ccccc2)[nH]c2ccccc12 | 7 | inactive | inactive | inactive | > 100 | > 27 | inactive | 38 | inactive |
| O=c1cnn([C@@H]2O[C@H](CO)[C@@H](O)[C@H]2O)c(=O)[nH]1 [6-AZAURIDINE] | > 25 | inactive | inactive | inactive | 1 | 25 | inactive | 0.2 | inactive |
| COc1ccc2c(=O)c(Cc3c(O)ccc4c(C)cc(=O)oc34)c(N3CCCC3)oc2c1 | > 100 | inactive | inactive | inactive | > 100 | > 100 | inactive | > 100 | inactive |
| CCOC(=O)N1CCN(Cc2c(O)ccc3c(C)cc(=O)oc23)CC1 | > 100 | inactive | inactive | inactive | ≥ 100 | > 100 | inactive | > 100 | inactive |
| CCC(=O)Oc1ccc2ccc(=O)oc2c1Cc1c(-c2ccccc2)[nH]c2ccccc12 | > 100 | inactive | inactive | inactive | > 100 | > 82 | inactive | > 100 | inactive |
| Cc1cc(=O)oc2c(CN(C)CC(=O)O)c(O)ccc12 | > 100 | inactive | inactive | inactive | > 100 | > 100 | inactive | > 100 | inactive |
| O=c1ccc2ccc(O)c(CN3CCN(C/C=C/c4ccccc4)CC3)c2o1 | > 24 | inactive | inactive | inactive | > 100 | > 59 | inactive | 5 | inactive |
| O=C(Oc1ccc2ccc(=O)oc2c1CN1CCc2ccccc2C1)c1ccccc1 | > 100 | inactive | inactive | inactive | 1 | > 100 | inactive | > 100 | inactive |
| CC(=O)Oc1ccc2ccc(=O)oc2c1Cc1c(-c2ccccc2)[nH]c2ccccc12 | > 57 | inactive | inactive | inactive | > 100 | > 100 | inactive | > 100 | inactive |
| CCCOc1ccc2c(C)cc(=O)oc2c1CN1CCOCC1 | > 100 | inactive | inactive | inactive | > 100 | > 100 | inactive | > 100 | inactive |
| O=c1ccc2ccc(O)c(CN3CCc4ccccc4C3)c2o1 | > 100 | inactive | inactive | inactive | > 100 | > 100 | inactive | > 100 | inactive |
